In ChEMBL document CHEMBL2401728, “An unexpected Dimroth rearrangement leading to annelated thieno[3,2-d][1,2,3]triazolo[1,5-a]pyrimidines with potent antitumor activity” (Eur J Med Chem, 2013):

Columns and labels:
[1] = Cytotoxicity against human ovarian cancer cells assessed as cellular growth at 10 uM after 48 hrs by SRB assay relative to control; type: functional, Cancer cell lines
[2] = Cytotoxicity against human breast cancer cells assessed as cellular growth at 10 uM after 48 hrs by SRB assay relative to control; type: functional, Cancer cell lines

O=C(O)CCCn1c2c(sc3ccccc32)c(=O)n2nnc(-c3ccccc3)c12
Activity [1]: 105% | Activity [2]: 79%
